Measured values reported in USRE48461E1, “Modulation of androgen receptor expression” (Ionis Pharmaceuticals, Inc., priority 2012, dated 2021).

Legend:
Assay type in all cases: cell-based, human
22RV1 cells = test: 22RV1 cell proliferation (Example 32); conditions: 5 days; for Proliferation (% untreated control): 22RV1 cells, complete medium
Outline: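 Cells were treated for 5 days in complete medium. Proliferation was then read with a tetrazolium (AQueous One) or ATP-luminescence (CellTiter-Glo) assay.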

AR mRNA = test: AR RNA expression in C4-2B cells (complete, CSS+DHT medium; Example 30); conditions: 48 hrs
Outline: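 C4-2B cells were plated at 1,000 cells per well in complete medium, or at 2,000 cells per well in CSS medium with 1 nM DHT. ISIS 549148 served as the negative control. AR, PSA and TMPRSS2 RNA levels were measured after 48 hrs.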

PSA mRNA [1] = test: PSA expression in 22RV1 cells; conditions: RNAiMax, 48 hrs
Outline: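 In 22RV1 cells, full-length AR, AR-V7, PSA and TMPRSS2 RNA measured after 48 h compound incubation. Complete-medium format used 1,000 cells/well; CSS+DHT format used 2,000 cells/well cultured 16 h in CSS medium, with 1 nM DHT added after 4 h.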

TMPRSS2 mRNA = TMPRSS2 mRNA levels in LMR20 cells; conditions: with or without DHT/R1881
Protocol: LMR20 cells were plated at 1,500 cells per well in phenol red-free medium with CSS.

PSA mRNA [2] = test: PSA expression in C4-2 cells; conditions: 48 hrs; for Percent inhibition of PSA expression: C4-2 cells, CSS + DHT medium
Protocol: Cells were plated at 1,000 cells per well. […] After an incubation period of 48 hrs, RNA levels of AR, PSA and TMPRSS2 were measured.
Cells were plated at 2,000 cells per well and cultured in CSS media with 1 nM DHT. […] After an incubation period of 48 hrs, RNA levels of AR, PSA and TMPRSS2 were measured.

C4-2B cells = test: C4-2B cell proliferation (complete or CSS+DHT medium; Example 30); conditions: 5 days; for Proliferation (% untreated control): C4-2B cells
Protocol: After a treatment period of 5 days in complete medium or CSS+1 nM DHT medium, the proliferative capacity of the cancer cells was measured with using CellTiter 96® AQueous One or CellTiter-Glo® Solution Cell Proliferation kit (Promega), following the manufacturer's instructions.

LMR20 cells = test: Proliferation of MDV3100-resistant LMR20 cells (MTT; with R1881 or DHT); conditions: 5 days
Outline: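 Cells were held in phenol red-free medium with charcoal-stripped FBS and given antisense oligonucleotides plus 1 nM R1881 or 10 nM DHT from day 1. Proliferation was read by MTT after 5 days of treatment and reported as percent inhibition against non-treated cells.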

TTGATTTAATGGTTGC [ISIS 560131] (MOE and (S)-cEt gapmer chemistry, further chemistry not given here) [targets intron 1]
Proliferation (% untreated control) (22RV1 cells; 1.34 nM): 94 % untreated control
Proliferation (% untreated control) (22RV1 cells; 4.0 nM): 72 % untreated control
Proliferation (% untreated control) (22RV1 cells; 13.4 nM): 50 % untreated control
Proliferation (% untreated control) (22RV1 cells; 40 nM): 17 % untreated control
proliferation of 22RV1 cells (22RV1 cells): reduced proliferation of the cells in a dose dependent compared to the control
Percent expression of AR (AR mRNA; CSS + DHT medium, 0.04 μM): 55%
Percent expression of AR (AR mRNA; CSS + DHT medium, 0.2 μM): 31%
Percent expression of AR (AR mRNA; CSS + DHT medium, 1 μM): 15%
Percent expression of AR (AR mRNA; CSS + DHT medium, 5.0 μM): 13%
Percent expression of AR (AR mRNA; complete medium, 0.04 μM): 34%
Percent expression of AR (AR mRNA; complete medium, 0.2 μM): 15%
Percent expression of AR (AR mRNA; complete medium, 1 μM): 14%
Percent expression of AR (AR mRNA; complete medium, 5.0 μM): 14%
Percent inhibition of PSA expression (PSA mRNA [1]; CSS + DHT medium, 1.34 nM): 3%
Percent inhibition of PSA expression (PSA mRNA [1]; CSS + DHT medium, 4.0 nM): 50%
Percent inhibition of PSA expression (PSA mRNA [1]; CSS + DHT medium, 13.4 nM): 66%
Percent inhibition of PSA expression (PSA mRNA [1]; complete medium, 1.34 nM): 10%
Percent inhibition of PSA expression (PSA mRNA [1]; complete medium, 4.0 nM): 20%
Percent inhibition of PSA expression (PSA mRNA [1]; complete medium, 13.4 nM): 27%
Percent inhibition of PSA expression (PSA mRNA [1]; complete medium, 40 nM): 36%
TMPRSS2 mRNA levels in LMR20 cells (TMPRSS2 mRNA): reduced PSA levels and TMPRSS2 more extensively than the LNA gapmer ISIS 554221 or MDV3100
Percent inhibition of PSA expression (PSA mRNA [2]; 0.04 μM): 10%
Percent inhibition of PSA expression (PSA mRNA [2]; 0.2 μM): 24%
Percent inhibition of PSA expression (PSA mRNA [2]; 1 μM): 49%
Percent inhibition of PSA expression (PSA mRNA [2]; 5.0 μM): 74%
Percent inhibition of PSA expression in C4-2 cells cultured in complete medium (PSA mRNA [2]; 0.04 μM): 48%
Percent inhibition of PSA expression in C4-2 cells cultured in complete medium (PSA mRNA [2]; 0.2 μM): 78%
Percent inhibition of PSA expression in C4-2 cells cultured in complete medium (PSA mRNA [2]; 1 μM): 88%
Percent inhibition of PSA expression in C4-2 cells cultured in complete medium (PSA mRNA [2]; 5.0 μM): 89%
Proliferation (% untreated control) (C4-2B cells; CSS + DHT medium, 0.04 μM): 111 % untreated control
Proliferation (% untreated control) (C4-2B cells; CSS + DHT medium, 0.2 μM): 75 % untreated control
Proliferation (% untreated control) (C4-2B cells; CSS + DHT medium, 1 μM): 49 % untreated control
Proliferation (% untreated control) (C4-2B cells; CSS + DHT medium, 5.0 μM): 40 % untreated control
Proliferation (% untreated control) (C4-2B cells; complete medium, 0.04 μM): 93 % untreated control
Proliferation (% untreated control) (C4-2B cells; complete medium, 0.2 μM): 50 % untreated control
Proliferation (% untreated control) (C4-2B cells; complete medium, 1 μM): 50 % untreated control
Proliferation (% untreated control) (C4-2B cells; complete medium, 5.0 μM): 41 % untreated control
proliferation of C4-2B cells (C4-2B cells; complete medium or CSS+1 nM DHT): reduced proliferation of the cells in a dose dependent compared to the control
Percent inhibition of LMR20 cell proliferation (LMR20 cells; CSS + DHT, ASO 0.04 μM): 0%
Percent inhibition of LMR20 cell proliferation (LMR20 cells; CSS + DHT, ASO 0.20 μM): 13%
Percent inhibition of LMR20 cell proliferation (LMR20 cells; CSS + DHT, ASO 1.0 μM): 57%
Percent inhibition of LMR20 cell proliferation (LMR20 cells; CSS + DHT, ASO 5.0 μM): 71%
Percent inhibition of LMR20 cell proliferation (LMR20 cells; CSS + R1881, ASO 0.04 μM): 0%
Percent inhibition of LMR20 cell proliferation (LMR20 cells; CSS + R1881, ASO 0.20 μM): 13%
Percent inhibition of LMR20 cell proliferation (LMR20 cells; CSS + R1881, ASO 1.0 μM): 55%
Percent inhibition of LMR20 cell proliferation (LMR20 cells; CSS + R1881, ASO 5.0 μM): 70%
Percent inhibition of LMR20 cell proliferation (LMR20 cells; CSS, ASO 0.04 μM): 0%
Percent inhibition of LMR20 cell proliferation (LMR20 cells; CSS, ASO 0.20 μM): 0%
Percent inhibition of LMR20 cell proliferation (LMR20 cells; CSS, ASO 1.0 μM): 9%
Percent inhibition of LMR20 cell proliferation (LMR20 cells; CSS, ASO 5.0 μM): 16%
LMR20 cell proliferation (LMR20 cells; in the presence of R1881 or DHT, 0.04-5.0 μM): significantly inhibited MDV3100-resistant prostate cancer cell proliferation in a dose dependent manner more extensively than ISIS 554221
